The subject of the assay is HBV viral production from HepAD38 cells. Description: Activity of test compounds on viral production from HepAD38 cells (viral load by qPCR of HBV core sequence in supernatant). It counts as cell-based. As to conditions: Hepatitis B virus, 120 h, 5 days incubation, HBV DNA in supernatant by qPCR, top concentration 10 μM, read-out: Viral Load EC50 Activity range. A digest of the protocol: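 HepAD38 cells, 50,000/well in tetracycline-free 2% FBS medium, treated 5 days at 37° C. with compound from 10 μM top concentration. HBV DNA in supernatant quantified by TaqMan qPCR of core sequence against DNA standards, relative to DMSO wells; CellTiter-Glo viability read in parallel. EC50/CC50 from four-parameter logistic fit.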
The EC50 is the midpoint of the concentration-response curve. As for `CN1[C@H](C(=O)Nc2ccc(F)c(Cl)c2)C[C@H](c2ccc(-c3nncn3C)s2)NS1(=O)=O` [HBV-CSU-324-ISO-I, Cis-N-(3-Chloro-4-fluorophenyl)-2-methyl-5-(5-(4-methyl-4H-1,2,4-triazol-3-yl)thiophen-2-yl)-1,2,6-thiadiazinane-3-carboxamide 1,1-dioxide], the EC50 is less than 1000 nM.
In the case of `CN1[C@@H](C(=O)Nc2ccc(F)c(Cl)c2)C[C@@H](c2ccc(-c3nncn3C)s2)NS1(=O)=O` [HBV-CSU-324-ISO-II, Cis-N-(3-Chloro-4-fluorophenyl)-2-methyl-5-(5-(4-methyl-4H-1,2,4-triazol-3-yl)thiophen-2-yl)-1,2,6-thiadiazinane-3-carboxamide 1,1-dioxide] it was 1000 to 5000 nM.
In the case of `CN1[C@H](C(=O)Nc2ccc(F)c(Cl)c2)C[C@H](c2cc(-c3cnn(C(F)(F)F)c3)cs2)NS1(=O)=O` [HBV-CSU-325-ISO-I, Cis-N-(3-Chloro-4-fluorophenyl)-2-methyl-5-(4-(1-(trifluoromethyl)-1H-pyrazol-4-yl)thiophen-2-yl)-1,2,6-thiadiazinane-3-carboxamide 1,1-dioxide] it was less than 1000 nM; in that of `CN1[C@H](C(=O)Nc2ccc(F)c(Cl)c2)C[C@H](c2cc(-c3ncn(C)n3)cs2)NS1(=O)=O` [HBV-CSU-326-ISO-I, Cis-N-(3-chloro-4-fluorophenyl)-2-methyl-5-(4-(1-methyl-1H-1,2,4-triazol-3-yl)thiophen-2-yl)-1,2,6-thiadiazinane-3-carboxamide 1,1-dioxide], less than 1000 nM; in that of `CN1[C@@H](C(=O)Nc2ccc(F)c(Cl)c2)C[C@@H](c2cc(-c3ncn(C)n3)cs2)NS1(=O)=O` [HBV-CSU-326-ISO-II, Cis-N-(3-chloro-4-fluorophenyl)-2-methyl-5-(4-(1-methyl-1H-1,2,4-triazol-3-yl)thiophen-2-yl)-1,2,6-thiadiazinane-3-carboxamide 1,1-dioxide], more than 5000 nM.
On to `CN1[C@H](C(=O)Nc2ccc(F)c(Cl)c2)C[C@H](c2cc(-c3ncnn3C)cs2)NS1(=O)=O` [HBV-CSU-327-ISO-I, Cis-N-(3-Chloro-4-fluorophenyl)-2-methyl-5-(4-(1-methyl-1H-1,2,4-triazol-5-yl)thiophen-2-yl)-1,2,6-thiadiazinane-3-carboxamide 1,1-dioxide], for which the EC50 was less than 1000 nM.
Regarding `CN1[C@@H](C(=O)Nc2ccc(F)c(Cl)c2)C[C@@H](c2cc(-c3ncnn3C)cs2)NS1(=O)=O` [HBV-CSU-327-ISO-II, Cis-N-(3-Chloro-4-fluorophenyl)-2-methyl-5-(4-(1-methyl-1H-1,2,4-triazol-5-yl)thiophen-2-yl)-1,2,6-thiadiazinane-3-carboxamide 1,1-dioxide], the EC50 fell in the range of 1000 to 5000 nM.
The same measure for `CN1[C@H](C(=O)Nc2ccc(F)c(Cl)c2)C[C@H](c2cc(-c3nncn3C)cs2)NS1(=O)=O` [HBV-CSU-328-ISO-I, Cis-N-(3-chloro-4-fluorophenyl)-2-methyl-5-(4-(4-methyl-4H-1,2,4-triazol-3-yl)thiophen-2-yl)-1,2,6-thiadiazinane-3-carboxamide 1,1-dioxide]: less than 1000 nM; for `CN1[C@@H](C(=O)Nc2ccc(F)c(Cl)c2)C[C@@H](c2cc(-c3nncn3C)cs2)NS1(=O)=O` [HBV-CSU-328-ISO-II, Cis-N-(3-chloro-4-fluorophenyl)-2-methyl-5-(4-(4-methyl-4H-1,2,4-triazol-3-yl)thiophen-2-yl)-1,2,6-thiadiazinane-3-carboxamide 1,1-dioxide]: more than 5000 nM; for `CN1C(C(=O)Nc2ccc(F)c(Cl)c2)CC(c2cc(Cl)c(Br)s2)NS1(=O)=O` (stereo not drawn) [HBV-CSU-329, Cis-5-(5-bromo-4-chlorothiophen-2-yl)-N-(3-chloro-4-fluorophenyl)-2-methyl-1,2,6-thiadiazinane-3-carboxamide 1,1-dioxide]: less than 1000 nM.
Take `CN1C(C(=O)Nc2ccc(F)c(Cl)c2)CC(c2cc(Br)c(Cl)s2)NS1(=O)=O` (stereo not drawn) [HBV-CSU-330, Cis-5-(4-bromo-5-chlorothiophen-2-yl)-N-(3-chloro-4-fluorophenyl)-2-methyl-1,2,6-thiadiazinane-3-carboxamide 1,1-dioxide]: the EC50 is less than 1000 nM.

The record behind these values is patent US11078170B2 (Assembly Biosciences, Inc., priority 2017, dated 2021).
